Like-named read-outs stand apart in the source and are kept apart here.
Experiments:
[1] = system: E. coli EN002; assay: MIC, DtoIC; assay type: cell-based, Escherichia coli; conditions: Escherichia coli, read-out: MIC
[2] = system: E. coli EN003; assay: microbe, parasite or virus in culture; assay type: cell-based, Escherichia coli; conditions: Escherichia coli, EN003, combination didanosine+trimethoprim+uridine, Table 10
[3] = system: P. aeruginosa EN004; assay: MIC, WT (EN004 = EN0004); assay type: cell-based, Pseudomonas aeruginosa
[4] = system: K. pneumoniae EN006; assay: MIC, WT (EN006 = EN0006, ATCC 13883); assay type: cell-based, Klebsiella pneumoniae
[5] = system: S. aureus EN008; assay: MIC, Gram-positive control; assay type: cell-based, Staphylococcus aureus; conditions: Staphylococcus aureus, read-out: MIC
[6] = system: E. coli EN012; assay: MIC, WT; assay type: cell-based, Escherichia coli; conditions: Escherichia coli, EN012, combination FdUrd+trimethoprim+uridine, Table 8; read-out: MIC
[7] = system: P. aeruginosa EN014; assay: MIC, WT; assay type: cell-based, Pseudomonas aeruginosa; conditions: Pseudomonas aeruginosa, read-out: MIC
[8] = system: A. baumannii EN016; assay: MIC, WT; assay type: cell-based, Acinetobacter baumannii; conditions: Acinetobacter baumannii, read-out: MIC
[9] = system: E. coli EN0136; assay: MIC, ESBL (CTX-M-2); assay type: cell-based; conditions: Escherichia coli, read-out: MIC
[10] = system: E. coli EN0137; assay: MIC, ESBL (CTX-M-15); assay type: cell-based; conditions: Escherichia coli, read-out: MIC
[11] = system: E. coli EN0235; assay: microbe, parasite or virus in culture; assay type: cell-based; conditions: Escherichia coli
[12] = system: K. pneumoniae EN0140; assay: MIC, AmpC (DHA-1); assay type: cell-based; conditions: Klebsiella pneumoniae, read-out: MIC
[13] = system: K. pneumoniae EN0144; assay: MIC, MBL (VIM-1); assay type: cell-based; conditions: Klebsiella pneumoniae, read-out: MIC
[14] = system: K. pneumoniae EN0145; assay: MIC, KPC-2; assay type: cell-based; conditions: Klebsiella pneumoniae, read-out: MIC
[15] = system: K. pneumoniae EN0244; assay: MIC, colistinR; assay type: cell-based; conditions: Klebsiella pneumoniae, read-out: MIC
[16] = system: K. pneumoniae EN0245; assay: MIC, colistinR; assay type: cell-based; conditions: Klebsiella pneumoniae, read-out: MIC
[17] = system: K. pneumoniae EN0249; assay: MIC, colistinR; assay type: cell-based; conditions: Klebsiella pneumoniae, read-out: MIC
[18] = system: S. flexneri APV00907; assay: MIC and antibiogram; assay type: cell-based; conditions: Shigella flexneri, Table 22A
From the text: Inhibition of Heliobacter is important in view of increasing resistance and its association to gastric cancer.

[19] = system: S. sonnei APV00908; assay: MIC and antibiogram; assay type: cell-based; conditions: Shigella sonnei, Table 22A
[20] = combination AZT+trimethoprim+uridine, Table 17B
[21] = combination FdUrd+trimethoprim+uridine, Table 19
[22] = combination didanosine+trimethoprim+uridine, Table 20

With COc1cc(Cc2cnc(N)nc2N)cc(OC)c1OC [Trimethoprim, trimethoprim] as the molecule, how does the MIC ([1]; EN002, Combination 1 AZT+trimethoprim+uridine, Table 16) read?
Its MIC is 0.016 µg/mL.

And the MIC ([1]; EN002, combination AZT+trimethoprim+uridine, Table 6)?
The MIC was 0.016 µg/mL.

And the MIC ([1]; EN002, combination FdUrd+trimethoprim+uridine, Table 8)?
The MIC was 0.064 µg/mL.

What about the MIC ([1]; EN002, combination didanosine+trimethoprim+uridine, Table 10) of the same molecule?
Its MIC is 0.064 µg/mL.

What about the MIC [2] of the same molecule?
Its MIC is 0.064 µg/mL.

And the MIC ([3]; Pseudomonas aeruginosa, EN004, Combination 1 AZT+trimethoprim+uridine, Table 16, read-out: MIC)?
The MIC was over 4 µg/mL.

And the MIC ([3]; Pseudomonas aeruginosa, EN004, Combination 2 AZT+trimethoprim+uridine+thymidine, Table 16, read-out: MIC)?
Its MIC is over 4 µg/mL.

And the MIC ([3]; Pseudomonas aeruginosa, EN004, combination AZT+trimethoprim+uridine, Table 6, read-out: MIC)?
Its MIC is over 4 µg/mL.

What about the MIC ([3]; Pseudomonas aeruginosa, EN004, combination FdUrd+trimethoprim+uridine, Table 8, read-out: MIC) of the same molecule?
The MIC was over 8 µg/mL.

And the MIC ([3]; Pseudomonas aeruginosa, EN004, combination didanosine+trimethoprim+uridine, Table 10, read-out: MIC)?
The MIC was over 8 µg/mL.

And the MIC [3, 20]?
Its MIC is over 4 µg/mL.

And the MIC [3, 21]?
The MIC was over 8 µg/mL.

And the MIC [3, 22]?
The MIC was over 8 µg/mL.

What about the MIC ([4]; Klebsiella pneumoniae, EN006, Combination 2 AZT+trimethoprim+uridine+thymidine, Table 16, read-out: MIC) of the same molecule?
The MIC was 0.5 µg/mL.

And the MIC ([4]; Klebsiella pneumoniae, EN006, combination AZT+trimethoprim+uridine, Table 6, read-out: MIC)?
Its MIC is 0.06 µg/mL.

And the MIC ([4]; Klebsiella pneumoniae, EN006, combination FdUrd+trimethoprim+uridine, Table 8, read-out: MIC)?
The MIC was 1 µg/mL.

What about the MIC ([4]; Klebsiella pneumoniae, EN006, combination didanosine+trimethoprim+uridine, Table 10, read-out: MIC) of the same molecule?
The MIC was 1 µg/mL.

And the MIC [4, 20]?
Its MIC is 0.25 µg/mL.

What about the MIC [4, 21] of the same molecule?
Its MIC is 1 µg/mL.

What about the MIC [4, 22] of the same molecule?
The MIC was 1 µg/mL.

And the MIC ([5]; EN008, Combination 1 AZT+trimethoprim+uridine, Table 16)?
Its MIC is 1 µg/mL.

And the MIC ([5]; EN008, Combination 2 AZT+trimethoprim+uridine+thymidine, Table 16)?
The MIC was over 4 µg/mL.

What about the MIC ([5]; EN008, combination AZT+trimethoprim+uridine, Table 6) of the same molecule?
Its MIC is 1 µg/mL.

And the MIC ([5]; EN008, combination FdUrd+trimethoprim+uridine, Table 8)?
The MIC was under 0.016 µg/mL.

What about the MIC ([5]; EN008, combination didanosine+trimethoprim+uridine, Table 10) of the same molecule?
Its MIC is 1 µg/mL.

And the MIC [6]?
Its MIC is 0.064 µg/mL.

What about the MIC ([7]; EN014, Combination 1 AZT+trimethoprim+uridine, Table 16) of the same molecule?
Its MIC is over 4 µg/mL.

And the MIC ([7]; EN014, Combination 2 AZT+trimethoprim+uridine+thymidine, Table 16)?
Its MIC is over 4 µg/mL.

And the MIC ([7]; EN014, combination AZT+trimethoprim+uridine, Table 6)?
Its MIC is over 4 µg/mL.

What about the MIC ([7]; EN014, combination FdUrd+trimethoprim+uridine, Table 8) of the same molecule?
Its MIC is over 8 µg/mL.

What about the MIC ([7]; EN014, combination didanosine+trimethoprim+uridine, Table 10) of the same molecule?
Its MIC is over 8 µg/mL.

And the MIC ([8]; EN016, Combination 1 AZT+trimethoprim+uridine, Table 16)?
Its MIC is over 4 µg/mL.

What about the MIC ([8]; EN016, Combination 2 AZT+trimethoprim+uridine+thymidine, Table 16) of the same molecule?
Its MIC is over 4 µg/mL.

What about the MIC ([8]; EN016, combination AZT+trimethoprim+uridine, Table 6) of the same molecule?
Its MIC is over 4 µg/mL.

What about the MIC ([8]; EN016, combination FdUrd+trimethoprim+uridine, Table 8) of the same molecule?
Its MIC is 8 µg/mL.

And the MIC ([8]; EN016, combination didanosine+trimethoprim+uridine, Table 10)?
The MIC was over 8 µg/mL.

What about the MIC ([9]; EN0136, combination FdUrd+trimethoprim+uridine, Table 19) of the same molecule?
The MIC was 2 µg/mL.

And the MIC ([9]; EN0136, combination didanosine+trimethoprim+uridine, Table 20)?
The MIC was over 8 µg/mL.

And the MIC ([10]; EN0137, combination FdUrd+trimethoprim+uridine, Table 19)?
Its MIC is over 8 µg/mL.

And the MIC ([10]; EN0137, combination didanosine+trimethoprim+uridine, Table 20)?
Its MIC is over 8 µg/mL.

What about the MIC ([11]; EN0235, combination FdUrd+trimethoprim+uridine, Table 19) of the same molecule?
Its MIC is 0.125 µg/mL.

And the MIC ([11]; EN0235, combination didanosine+trimethoprim+uridine, Table 20)?
Its MIC is 0.25 µg/mL.

And the MIC ([12]; EN0140, combination AZT+trimethoprim+uridine, Table 17B)?
The MIC was 1 µg/mL.

What about the MIC ([12]; EN0140, combination FdUrd+trimethoprim+uridine, Table 19) of the same molecule?
The MIC was over 8 µg/mL.

What about the MIC ([12]; EN0140, combination didanosine+trimethoprim+uridine, Table 20) of the same molecule?
Its MIC is over 8 µg/mL.

And the MIC ([13]; EN0144, combination AZT+trimethoprim+uridine, Table 17B)?
The MIC was 1 µg/mL.

And the MIC ([13]; EN0144, combination FdUrd+trimethoprim+uridine, Table 19)?
The MIC was over 8 µg/mL.

And the MIC ([13]; EN0144, combination didanosine+trimethoprim+uridine, Table 20)?
The MIC was over 8 µg/mL.

And the MIC ([14]; EN0145, combination AZT+trimethoprim+uridine, Table 17B)?
Its MIC is 2 µg/mL.

And the MIC ([14]; EN0145, combination FdUrd+trimethoprim+uridine, Table 19)?
Its MIC is over 8 µg/mL.

What about the MIC ([14]; EN0145, combination didanosine+trimethoprim+uridine, Table 20) of the same molecule?
Its MIC is over 8 µg/mL.

And the MIC ([15]; EN0244, combination AZT+trimethoprim+uridine, Table 17B)?
The MIC was 0.5 µg/mL.

And the MIC ([15]; EN0244, combination FdUrd+trimethoprim+uridine, Table 19)?
The MIC was over 8 µg/mL.

And the MIC ([15]; EN0244, combination didanosine+trimethoprim+uridine, Table 20)?
Its MIC is over 8 µg/mL.

What about the MIC ([16]; EN0245, combination AZT+trimethoprim+uridine, Table 17B) of the same molecule?
The MIC was 1 µg/mL.

What about the MIC ([16]; EN0245, combination FdUrd+trimethoprim+uridine, Table 19) of the same molecule?
Its MIC is over 8 µg/mL.

What about the MIC ([16]; EN0245, combination didanosine+trimethoprim+uridine, Table 20) of the same molecule?
Its MIC is over 8 µg/mL.

And the MIC ([17]; EN0249, combination AZT+trimethoprim+uridine, Table 17B)?
The MIC was 1 µg/mL.

And the MIC ([17]; EN0249, combination FdUrd+trimethoprim+uridine, Table 19)?
The MIC was over 8 µg/mL.

And the MIC ([17]; EN0249, combination didanosine+trimethoprim+uridine, Table 20)?
Its MIC is over 8 µg/mL.

And the MIC ([18]; APV00907, combination AZT+trimethoprim+uridine)?
Its MIC is 2 µg/mL.

What about the MIC ([18]; APV00907, combination FdUrd+trimethoprim+uridine) of the same molecule?
The MIC was over 8 µg/mL.

And the MIC ([19]; APV00908, combination AZT+trimethoprim+uridine)?
Its MIC is 0.03 µg/mL.

And the MIC ([19]; APV00908, combination FdUrd+trimethoprim+uridine)?
The MIC was over 8 µg/mL.

— patent US10828317B2, “Method of treating bacterial infections” (priority 2016, dated 2020)
